From patent publication US9352049B2, “Ligand-therapeutic agent conjugates, silicon-based linkers, and methods for making and using them” (Albany Molecular Research, Inc., priority 2013, dated 2016) come the findings set out here.

The nature of series [1]: Cleavage study of silyl conjugates at pH 7.4 (THF:0.01 M PBS buffer, 37° C.). The series is classed as physicochemical. The conditions noted are these: pH 7.4, 37° C., after 24 hours. As for the experimental part: (§1) To study the release properties of the silyl conjugates, the conjugates were subject to hydrolysis conditions at both pH 7.4 and pH 4.5 to simulate blood and endosomes/lysosome environments, respectively.
Example 12 and Example 15 were dissolved in THF:0.01 M PBS buffer (pH 7.4) and heated to 37° C. with stirring for over 20 hours. […] Additionally, Example 11 was trapped with methyl-3-mercaptopropionate to approximate a bioconjugate.

Series [2] in a line: Cleavage study of silyl conjugates at pH 4.5 (1:1 THF:0.05 M acetate buffer, 37° C., HPLC). The series is classed as physicochemical. The conditions noted are these: HPLC over 24 hours. As for the experimental part:
as §1
The benzyl ester intermediates from Example 11 (step A), Example 12, Example 13, Example 14 (step A), and Example 15 were each dissolved in a 1:1 mixture of THF:0.05 M acetate buffer (pH 4.5) and heated to 37° C. with stirring. The mixture was analyzed with HPLC at T=1, 2, 3, 4, 5, 7 and 24 hours via Method B (see General Procedures in Example 1). Aliquots were quenched in a 1:1 acetonitrile:triethylamine solvent mixture to halt the hydrolysis reaction and allowed to stand up to 48 hours before HPLC analysis.

The structures appear in SMILES notation.

As to `CC[C@]1(O)CC2CN(CCc3c([nH]c4ccccc34)[C@@](C(=O)OC)(c3cc4c(cc3OC)N(C)[C@H]3[C@@](O)(C(=O)OC)[C@H](O[Si]5(CCCCC(=O)NCCOCCN6C(=O)CC(SCCC(=O)OC)C6=O)CCCCC5)[C@]5(CC)C=CCN6CC[C@]43[C@@H]65)C2)C1` (stereo partly drawn) [Example 19, (3aR,3a^1R,4R,5S,10bR)-methyl 3a-ethyl-9-((5S,7R,9S)-5-ethyl-5-hydroxy-9-(methoxycarbonyl)-2,4,5,6,7,8,9,10-octahydro-1H-3,7-methano[1]azacycloundecino[5,4-b]indol-9-yl)-5-hydroxy-8-methoxy-4-((1-(5-((2-(2-(3-((3-methoxy-3-oxopropyl)thio)-2,5-dioxopyrrolidin-1-yl)ethoxy)ethyl)amino)-5-oxopentyl)silinan-1-yl)oxy)-6-methyl-3a,3a^1,4,5,5a,6,11,12-octahydro-1H-indolizino[8,1-cd]carbazole-5-carboxylate], the “desilylation at pH 7.4” value in series [1] is reported as “no desilylation was observed”. Further, the “hydrolysis (release of desilylated parent vinca) in acidic media” value in series [2] is given as “undergo parent vinca release at a rate comparable to the corresponding benzyl ester from Example 11 (step A)”.
